# What was measured:
# Format in all cases: cell-based
# E. coli DH5α = experiment: Antibacterial activity: MIC and growth curve against E. coli DH5α in 96-well plate; details: minimal inhibitory concentration against E. coli DH5α; 96-well plate, 5×10^5 CFU/mL, 37° C., judged after 8 h
# Summary of the method: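 MIC taken as lowest protein level with no bacterial growth, tracked by A600 every 30 min during 37 °C, 175 rpm culture. Two-fold protein series 50-12.5 μg/mL final, triplicate wells, against 5×10^5 CFU/mL of LB-washed mid-log cells.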
# E. coli BL21 = experiment: MIC against Gram-negative bacteria: E. coli BL21
# Summary of the method: (§1)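 Growth inhibition by human EGF domain proteins was scored in LB liquid culture seeded at 5×10^5 CFU/mL. Protein was applied as a two-fold dilution series in triplicate, with shaking incubation at 37° C; MIC is the lowest concentration giving no growth.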
# Pseudomonas aeruginosa = experiment: MIC against Gram-negative bacteria: Pseudomonas aeruginosa; details: for MIC against P. aeruginosa: Pseudomonas aeruginosa
# Summary of the method: as §1
# Klebsiella pneumonia = experiment: MIC against Gram-negative bacteria: Klebsiella pneumonia; details: for MIC against K. pneumonia: Klebsiella pneumonia
# Summary of the method: as §1
# Enterobacter cloacae = experiment: MIC against Gram-negative bacteria: Enterobacter cloacae; details: for MIC against E. cloacae: Enterobacter cloacae
# Summary of the method: as §1
# Aeromonas hydrophila = experiment: MIC against Gram-negative bacteria: Aeromonas hydrophila; details: for MIC against A. hydrophila: Aeromonas hydrophila
# Summary of the method: as §1
# Citrobacter diversus = experiment: MIC against Gram-negative bacteria: Citrobacter diversus; details: for MIC against C. diversus: Citrobacter diversus
# Summary of the method: as §1
# Moraxella catarrhalis = experiment: MIC against Gram-negative bacteria: Moraxella catarrhalis; details: for MIC against M. catarrhalis: Moraxella catarrhalis
# Summary of the method: as §1
# Proteus mirabilis = experiment: MIC against Gram-negative bacteria: Proteus mirabilis; details: for MIC against P. mirabilis: Proteus mirabilis
# Summary of the method: as §1
# Proteus vulgaris = experiment: MIC against Gram-negative bacteria: Proteus vulgaris; details: for MIC against P. vulgaris: Proteus vulgaris
# Summary of the method: as §1
# Serratia marcescens = experiment: MIC against Gram-negative bacteria: Serratia marcescens; details: for MIC against S. marcescens: Serratia marcescens
# Summary of the method: as §1
# [1] = E. coli BL21, 96-well plate, 5×10^5 CFU/mL, 37° C., 10 h
# [2] = 96-well plate, 5×10^5 CFU/mL, 37° C., 10 h
# [3] = 10 h cultivation at 37° C., 5×10^5 CFU/mL, two-fold serial dilution
# [4] = 5×10^5 CFU/mL, 10 h cultivation at 37° C.
substance,measurement,setting,value
PRT982 (VLSPCESQPCQHGGQCRPSPGPGGGLTFTCHCAQPFWGPRCE; listed as Homo sapiens),MIC,E. coli DH5α,50 µg/mL
same,MIC,"E. coli BL21; E. coli BL21, 10 h cultivation at 37° C.",25 µg/mL
same,MIC,"Pseudomonas aeruginosa; P. aeruginosa, 10 h cultivation at 37° C.",12.5 µg/mL
same,MIC,"Klebsiella pneumonia; K. pneumonia, 10 h cultivation at 37° C.",50 µg/mL
same,MIC,"Enterobacter cloacae; E. cloacae, 10 h cultivation at 37° C.",12.5 µg/mL
same,MIC,"Aeromonas hydrophila; A. hydrophila, 10 h cultivation at 37° C.",25 µg/mL
same,MIC,"Citrobacter diversus; C. diversus, 10 h cultivation at 37° C.",50 µg/mL
same,MIC,"Moraxella catarrhalis; M. catarrhalis, 10 h cultivation at 37° C.",12.5 µg/mL
same,MIC,"Proteus mirabilis; P. mirabilis, 10 h cultivation at 37° C.",50 µg/mL
same,MIC,"Proteus vulgaris; P. vulgaris, 10 h cultivation at 37° C.",12.5 µg/mL
same,MIC,"Serratia marcescens; S. marcescens, 10 h cultivation at 37° C.",50 µg/mL
PRT1244 (CGSTCPTCVQGSCDTVTGDCVCSAGYWGPSCN; listed as Homo sapiens),MIC,E. coli DH5α,50 µg/mL
same,MIC against E. coli BL21,E. coli BL21; [1],12.5 µg/mL
same,MIC against P. aeruginosa,Pseudomonas aeruginosa; [2],50 µg/mL
same,MIC against K. pneumonia,Klebsiella pneumonia; [2],12.5 µg/mL
same,MIC against E. cloacae,Enterobacter cloacae; [2],12.5 µg/mL
same,MIC against A. hydrophila,Aeromonas hydrophila; [2],50 µg/mL
same,MIC against C. diversus,Citrobacter diversus; [2],25 µg/mL
same,MIC against M. catarrhalis,Moraxella catarrhalis; [2],12.5 µg/mL
same,MIC against P. mirabilis,Proteus mirabilis; [2],25 µg/mL
same,MIC against P. vulgaris,Proteus vulgaris; [2],50 µg/mL
same,MIC against S. marcescens,Serratia marcescens; [2],12.5 µg/mL
PRT851 (DELDCGPSNCSQHGLCTETGCRCDAGWTGSNCS; listed as Homo sapiens),MIC,E. coli DH5α,25 µg/mL
same,MIC (μg/mL) E. coli BL21,"E. coli BL21; E. coli BL21, 10 h cultivation at 37° C., 5×10^5 CFU/mL",12.5 µg/mL
same,MIC (μg/mL) P. aeruginosa,"Pseudomonas aeruginosa; P. aeruginosa, 10 h cultivation at 37° C., 5×10^5 CFU/mL",25 µg/mL
same,MIC (μg/mL) K. pneumonia,"Klebsiella pneumonia; K. pneumonia, 10 h cultivation at 37° C., 5×10^5 CFU/mL",12.5 µg/mL
same,MIC (μg/mL) E. cloacae,"Enterobacter cloacae; E. cloacae, 10 h cultivation at 37° C., 5×10^5 CFU/mL",12.5 µg/mL
same,MIC (μg/mL) A. hydrophila,"Aeromonas hydrophila; A. hydrophila, 10 h cultivation at 37° C., 5×10^5 CFU/mL",12.5 µg/mL
same,MIC (μg/mL) C. diversus,"Citrobacter diversus; C. diversus, 10 h cultivation at 37° C., 5×10^5 CFU/mL",12.5 µg/mL
same,MIC (μg/mL) M. catarrhalis,"Moraxella catarrhalis; M. catarrhalis, 10 h cultivation at 37° C., 5×10^5 CFU/mL",12.5 µg/mL
same,MIC (μg/mL) P. mirabilis,"Proteus mirabilis; P. mirabilis, 10 h cultivation at 37° C., 5×10^5 CFU/mL",25 µg/mL
same,MIC (μg/mL) P. vulgaris,"Proteus vulgaris; P. vulgaris, 10 h cultivation at 37° C., 5×10^5 CFU/mL",12.5 µg/mL
same,MIC (μg/mL) S. marcescens,"Serratia marcescens; S. marcescens, 10 h cultivation at 37° C., 5×10^5 CFU/mL",25 µg/mL
PRT1269 (DIDECQTRNGGCDHFCKNIVGSFDCGCKKGFKLLTDEKSCQ; listed as Homo sapiens),MIC,E. coli DH5α,12.5 µg/mL
same,MIC against E. coli BL21,E. coli BL21; [1],50 µg/mL
same,MIC against P. aeruginosa,Pseudomonas aeruginosa; [2],25 µg/mL
same,MIC against K. pneumonia,Klebsiella pneumonia; [2],12.5 µg/mL
same,MIC against E. cloacae,Enterobacter cloacae; [2],25 µg/mL
same,MIC against A. hydrophila,Aeromonas hydrophila; [2],50 µg/mL
same,MIC against C. diversus,Citrobacter diversus; [2],12.5 µg/mL
same,MIC against M. catarrhalis,Moraxella catarrhalis; [2],50 µg/mL
same,MIC against P. mirabilis,Proteus mirabilis; [2],12.5 µg/mL
same,MIC against P. vulgaris,Proteus vulgaris; [2],50 µg/mL
same,MIC against S. marcescens,Serratia marcescens; [2],12.5 µg/mL
PRT1059 (SDSECPLSHDGYCLHDGVCMYIEALDKYACNCVVGYIGERCQ; listed as Homo sapiens),MIC,E. coli DH5α,50 µg/mL
same,MIC E. coli BL21,E. coli BL21; [3],12.5 µg/mL
same,MIC P. aeruginosa,Pseudomonas aeruginosa; [3],50 µg/mL
same,MIC K. pneumonia,Klebsiella pneumonia; [3],12.5 µg/mL
same,MIC E. cloacae,Enterobacter cloacae; [3],25 µg/mL
same,MIC A. hydrophila,Aeromonas hydrophila; [3],25 µg/mL
same,MIC C. diversus,Citrobacter diversus; [3],50 µg/mL
same,MIC M. catarrhalis,Moraxella catarrhalis; [3],12.5 µg/mL
same,MIC P. mirabilis,Proteus mirabilis; [3],12.5 µg/mL
same,MIC P. vulgaris,Proteus vulgaris; [3],25 µg/mL
same,MIC S. marcescens,Serratia marcescens; [3],12.5 µg/mL
PRT1447 (GCGAGRWGPGCTKECPGCLHGGVCHDHDGECVCPPGFTGTRCE; listed as Homo sapiens),MIC,E. coli DH5α,100 µg/mL
same,MIC against E. coli BL21,"E. coli BL21; E. coli BL21, 5×10^5 CFU/mL, 10 h cultivation at 37° C.",25 µg/mL
same,MIC against P. aeruginosa,Pseudomonas aeruginosa; [4],12.5 µg/mL
same,MIC against K. pneumonia,Klebsiella pneumonia; [4],12.5 µg/mL
same,MIC against E. cloacae,Enterobacter cloacae; [4],12.5 µg/mL
same,MIC against A. hydrophila,Aeromonas hydrophila; [4],50 µg/mL
same,MIC against C. diversus,Citrobacter diversus; [4],12.5 µg/mL
same,MIC against M. catarrhalis,Moraxella catarrhalis; [4],50 µg/mL
same,MIC against P. mirabilis,Proteus mirabilis; [4],25 µg/mL
same,MIC against P. vulgaris,Proteus vulgaris; [4],12.5 µg/mL
same,MIC against S. marcescens,Serratia marcescens; [4],25 µg/mL

# — patent publication US9833497B2, “Human originated EGF domain proteins and use of the same” (CHENGDU SOURCEBIO LIMITED-LIABILITY COMPANY, priority 2013, dated 2017)
